Key:
mouse hepatocytes = assay: In vitro metabolism of Compound 2 in mouse cryopreserved hepatocytes; format: in vitro ADME; set-up: key to Relative abundance of metabolite of Compound 2, Mouse: ND Not detected.; trace: Trace: observed by HPLC/MS measurements only.; + Minor as assessed by HPLC/UV measurements; ++ moderate as assessed by HPLC/UV measurements; +++ major as assessed by HPLC/UV measurements.; * m/z 593 and m/z 505 co-eluted in rabbit hepatocytes.; ** m/z 591 c and m/z 593 were merged in human hepatocytes and Hepatopack.; *** m/z 607 and m/z 751 b were merged in rabbit hepatocytes; details: for metabolite of Compound 2 observed in mouse hepatocyte incubations: 10 μM Compound 2, 7.5×10^5 cells/mL, 1 and 4 hrs composite; for Relative abundance of metabolite of Compound 2, Mouse: mouse cryopreserved hepatocytes, HPLC/UV/MS
Description: (§1) Male CD-1 mouse hepatocytes (lot YHL), male Wistar-Han rat hepatocytes (Celsius; product number: M000065; lot: SLA), female New Zealand rabbit hepatocytes (lot 1510147), male cryopreserved cynomolgus monkey hepatocytes (Celsius; product number: M00305; lot: DNB) and mixed-gender cryopreserved human hepatocytes (Bioreclamation; product number: S01988; lot: DCM) were obtained for the hepatocyte in-vitro assessments.
(§2) At time 0 hrs 550 μL aliquots were removed from incubations and quenched with 5 volumes of ACN containing 0.1% formic acid. At 1 and 4 hrs, 275 μL aliquots were removed and quenched as above; these were combined in the same tube to prepare a composite sample. For all hepatocyte experiments, samples were processed by centrifugation at 1900×g for 5 minutes, and then the supernatant was transferred to clean glass tubes and evaporated to dryness under a stream of N2 using a Turbovap at 37° C. Sample residues were reconstituted in mobile phase prior to analysis by HPLC/UV/MS^n.
(§3) Samples were analyzed by HPLC/UV/MS^n using a Thermo Orbitrap Elite mass spectrometer in conjunction with a Thermo Open Accela UHPLC system. A 3.0×150 mm, 2.5 μm Acquity CSH C18 HPLC column (Waters) was heated to 45° C. for separation of analytes. The mobile phase was a gradient of A): water containing 0.1% formic acid, and B): acetonitrile. The flow rate was 450 μL/min, and the following gradient program was utilized: […]
(§4) UV absorbance was monitored with a photo-diode array detector from 220-450 nm. The mass spectrometer was operated in positive-ion mode with a HESI ion source at a potential of 3.0 kV, and capillary and source heater temperatures of 380 and 300° C., respectively. Sheath, auxiliary, and sweep gas flows were set to 45, 10, and 2 units, respectively. Full scan mass spectra were acquired over the range 120-1200 m/z at a resolving power of 30,000 (specified at m/z 400). Data-dependent MS^n spectra were acquired in an automated fashion at 15,000 resolving power using CID and HCD fragmentation with normalized collision energy settings of 28 and 65 V, respectively.
(§5) Metabolites were characterized by comparisons of mass spectral fragmentation patterns with that of a Compound 2 standard. All HPLC/UV/MS^n data were processed using Xcalibur v. 2.2, and integrated UV peak areas were subjected to weighted UV binning procedures utilizing an Excel template.

rat hepatocytes = assay: In vitro metabolism of Compound 2 in rat cryopreserved hepatocytes; format: in vitro ADME; set-up: key to Relative abundance of metabolite of Compound 2, Rat: ND Not detected.; trace: Trace: observed by HPLC/MS measurements only.; + Minor as assessed by HPLC/UV measurements; ++ moderate as assessed by HPLC/UV measurements; +++ major as assessed by HPLC/UV measurements.; * m/z 593 and m/z 505 co-eluted in rabbit hepatocytes.; ** m/z 591 c and m/z 593 were merged in human hepatocytes and Hepatopack.; *** m/z 607 and m/z 751 b were merged in rabbit hepatocytes; details: for metabolite of Compound 2 observed in rat hepatocyte incubations: 10 μM Compound 2, 7.5×10^5 cells/mL, 1 and 4 hrs composite; for Relative abundance of metabolite of Compound 2, Rat: rat cryopreserved hepatocytes, HPLC/UV/MS
Description: as §1, §2, §3, §4, §5

human hepatocytes = assay: In vitro metabolism of Compound 2 in human cryopreserved hepatocytes; format: in vitro ADME; set-up: key to Relative abundance of metabolite of Compound 2, Human: ND Not detected.; trace: Trace: observed by HPLC/MS measurements only.; + Minor as assessed by HPLC/UV measurements; ++ moderate as assessed by HPLC/UV measurements; +++ major as assessed by HPLC/UV measurements.; * m/z 593 and m/z 505 co-eluted in rabbit hepatocytes.; ** m/z 591 c and m/z 593 were merged in human hepatocytes and Hepatopack.; *** m/z 607 and m/z 751 b were merged in rabbit hepatocytes; details: for metabolite of Compound 2 observed in human hepatocyte incubations: 10 μM Compound 2, 7.5×10^5 cells/mL, 1 and 4 hrs composite; for Relative abundance of metabolite of Compound 2, Human: human cryopreserved hepatocytes, HPLC/UV/MS
Description: as §1, §2, §3, §4, §5

rabbit hepatocytes = assay: In vitro metabolism of Compound 2 in rabbit cryopreserved hepatocytes; format: in vitro ADME; set-up: key to Relative abundance of metabolite of Compound 2, Rabbit: ND Not detected.; trace: Trace: observed by HPLC/MS measurements only.; + Minor as assessed by HPLC/UV measurements; ++ moderate as assessed by HPLC/UV measurements; +++ major as assessed by HPLC/UV measurements.; * m/z 593 and m/z 505 co-eluted in rabbit hepatocytes.; ** m/z 591 c and m/z 593 were merged in human hepatocytes and Hepatopack.; *** m/z 607 and m/z 751 b were merged in rabbit hepatocytes; details: for metabolite of Compound 2 observed in rabbit hepatocyte incubations: 10 μM Compound 2, 7.5×10^5 cells/mL, 1 and 4 hrs composite; for Relative abundance of metabolite of Compound 2, Rabbit: rabbit cryopreserved hepatocytes, HPLC/UV/MS
Description: as §1, §2, §3, §4, §5

[1] = system: human co-cultured hepatocytes (Hepatopack); assay: In vitro metabolism of Compound 2 in human micropatterned co-cultured hepatocytes (Hepatopack); format: in vitro ADME; set-up: key to Relative abundance of metabolite of Compound 2, Hepatopack: ND Not detected.; trace: Trace: observed by HPLC/MS measurements only.; + Minor as assessed by HPLC/UV measurements; ++ moderate as assessed by HPLC/UV measurements; +++ major as assessed by HPLC/UV measurements.; * m/z 593 and m/z 505 co-eluted in rabbit hepatocytes.; ** m/z 591 c and m/z 593 were merged in human hepatocytes and Hepatopack.; *** m/z 607 and m/z 751 b were merged in rabbit hepatocytes; details: human co-cultured hepatocytes (Hepatopack); HPLC/UV/MS
Description: Micro-patterned co-cultured (MPCC) hepatocyte 24-well plates containing human donors (16 wells each) were provided by Ascendance Biotechnology (formerly Hepregen Corp. (Medford, MA). [see Wang W W W, Khetani S R, Krzyzewski S, et al. Assessment of a Micropatterned Hepatocyte Coculture System to Generate Major Human Excretory and Circulating Drug Metabolites. Drug Metab Dispos 2010; 38(10):1900-5.] The MPCCs were created at Ascendance Biotechnology and maintained in serum containing medium for 5-6 days to allow for stabilization of the co-cultures prior to shipment. A mixed-gender cryopreserved pool of 10 human donors (X008001-P; lot YFA) was used to seed the plates and was purchased from BioreclamationIVT (Westbury, NY). MPCC hepatocytes are plated with fibroblasts in a 1:3 ratio with ˜25,000 hepatocytes/well in a 24-well plate. 24-Well MPCC plates were shipped to Pfizer, fresh medium (400 μL/well) was applied and cultures were kept at 37° C. with […] and 95% relative humidity for two days. Micropatterned co-cultures containing pooled hepatocytes were allowed 7 days to fully stabilize with respect to liver-specific functions. […] At respective time points (0, 2, and 7 days), the culture medium was removed and mixed with 4 volumes of ACN, then stored frozen at −40° C. until samples could be analyzed. Samples were subsequently processed by the addition of 2.5 mL of 1:1 ACN:MeOH containing 0.1% formic acid. After vortexing, the samples were centrifuged at 1900×g for 5 min, then the supernatant was transferred to 15 mL conical tubes and evaporated under N2 using a Turbovap set at 37° C. The residues were reconstituted in mobile phase (5:95 v:v ACN:0.1% aqueous formic acid) prior to analysis by HPLC/UV/MS^n.
as §3
UV absorbance was monitored with a photo-diode array detector from 220-450 nm. The mass spectrometer was operated in positive-ion mode with a HESI ion source at a potential of 3.0 kV, and capillary and source heater temperatures of 380 and 300° C., respectively. Sheath, auxiliary, and sweep gas flows were set to 45, 10, and 2 units, respectively. Full scan mass spectra were acquired over the range 120-1200 m/z at a resolving power of 30,000 (specified at m/z 400). […]

monkey hepatocytes = assay: In vitro metabolism of Compound 2 in monkey cryopreserved hepatocytes; format: in vitro ADME, cynomolgus monkey; set-up: key to Relative abundance of metabolite of Compound 2, Monkey: ND Not detected.; trace: Trace: observed by HPLC/MS measurements only.; + Minor as assessed by HPLC/UV measurements; ++ moderate as assessed by HPLC/UV measurements; +++ major as assessed by HPLC/UV measurements.; * m/z 593 and m/z 505 co-eluted in rabbit hepatocytes.; ** m/z 591 c and m/z 593 were merged in human hepatocytes and Hepatopack.; *** m/z 607 and m/z 751 b were merged in rabbit hepatocytes; details: for metabolite of Compound 2 observed in monkey hepatocyte incubations: 10 μM Compound 2, 7.5×10^5 cells/mL, 1 and 4 hrs composite; for Relative abundance of metabolite of Compound 2, Monkey: monkey cryopreserved hepatocytes, HPLC/UV/MS
Description: as §1, §2, §3, §4, §5

human GLP-1R [2] = target: T1, human GLP-1R (Homo sapiens, UniProt P43220, L260F); assay: CHO GLP-1R Clone C6 - Assay 2 (HTRF cAMP agonist assay, low receptor density); format: cell-based; details: CHO GLP-1R Clone C6 (low receptor density), arithmetic mean, relative to 1 μM GLP-1
T1 construct: expressed in transfected cells
Description: GLP-1R-mediated agonist activity was determined with a cell-based functional assay utilizing an HTRF (Homogeneous Time-Resolved Fluorescence) cAMP detection kit (cAMP HI Range Assay Kit; Cis Bio cat #62AM6PEJ) that measures cAMP levels in the cell. The method is a competitive immunoassay between native cAMP produced by the cells and exogenous cAMP labeled with the dye d2. The tracer binding is visualized by a mAb anti-cAMP labeled with Cryptate. The specific signal (i.e. energy transfer) is inversely proportional to the concentration of cAMP in either a standard or an experimental sample.
The human GLP-1R coding sequence (NCBI Reference Sequence NP_002053.3, including naturally-occurring variant Leu260Phe) was subcloned into pcDNA5-FRT-TO and a clonal CHO cell line stably expressing a low receptor density was isolated using the Flp-In™ T-Rex™ System, as described by the manufacturer (ThermoFisher).
Cells were removed from cryopreservation, re-suspended in 40 mL of Dulbecco's Phosphate Buffered Saline (DPBS—Lonza Cat #17-512Q) and centrifuged at 800×g for 5 minutes at 22° C. The DPBS was aspirated, and the cell pellet was re-suspended in 10 mL of complete growth medium (DMEM:F12 1:1 Mixture with HEPES, L-Gln, 500 mL (DMEM/F12 Lonza Cat #12-719F), 10% heat inactivated fetal bovine serum (Gibco Cat #16140-071), 5 mL of 100× Pen-Strep (Gibco Cat #15140-122), 5 mL of 100× L-Glutamine (Gibco Cat #25030-081), 700 μg/mL Hygromycin (Invitrogen Cat #10687010) and 15 μg/mL Blasticidin (Gibco Cat #R21001). A 1 mL sample of the cell suspension in growth media was counted on a Becton Dickinson ViCell to determine cell viability and cell count per mL. The remaining cell suspension was then adjusted with growth media to deliver 1600 viable cells per well using a Matrix Combi Multidrop reagent dispenser, and the cells were dispensed into a white 384 well tissue culture treated assay plate (Corning 3570). The assay plate was then incubated for 48 hours at 37° C. in a humidified environment (95% O2, 5% CO2)
Varying concentrations of each compound to be tested (in DMSO) were diluted in assay buffer [HBSS with Calcium/Magnesium (Lonza/BioWhittaker cat #10-527F)/0.1% BSA (Sigma Aldrich cat #A7409-1L)/20 mM HEPES (Lonza/BioWhittaker cat #17-737E)] containing 100 μM 3-isobutyl-1-methylxanthin (IBMX; Sigma cat #15879). The final DMSO concentration in the compound/assay buffer mixture is 1%.
After 48 hours, the growth media was removed from the assay plate wells, and the cells were treated with 20 μL of the serially diluted compound in assay buffer for 30 minutes at 37° C. in a humidified environment (95% O2, 5% CO2). Following the 30 minute incubation, 10 μL of labeled d2 cAMP and 10 μL of anti-cAMP antibody (both diluted 1:20 in cell lysis buffer; as described in the manufacturer's assay protocol) were added to each well of the assay plate. The plates were then incubated at room temperature and after 60 minutes, changes in the HTRF signal were read with an Envision 2104 multi-label plate reader using excitation of 330 nm and emissions of 615 and 665 nm. Raw data were converted to nM cAMP by interpolation from a cAMP standard curve (as described in the manufacturer's assay protocol) and the percent effect was determined relative to a saturating concentration of the full agonist GLP-1 (1 μM) included on each plate. EC50 determinations were made from agonist dose response curves analyzed with a curve fitting program using a 4-parameter logistic dose response equation.

[3] = Circulating metabolites of Compound 2 in rat plasma following a 1.0 mg/kg IV bolus dose; format: in vivo; details: 1.0 mg/kg IV bolus dose of Compound 2, pooled 0.033-24 hrs
Description: (§6) Plasma and bile samples were obtained from a bile duct cannulated rat experiment (Study PK-0111) in which a 1.0 mg/kg IV bolus dose was administered to fed male rats (N=3). No control plasma was available from this experiment.
Clin Pharmacol Ther 1981; 29(3):408-13]. The entire volume of each replicate Hamilton pool was combined to create a single pooled sample (576 μL) for analysis.
(§7) Pooled plasma and bile samples were extracted with ACN containing 0.1% formic acid, and after centrifugation at 1900×g, the supernatant was transferred to clean tubes and evaporated under N2 in a Turbovap set at 37° C. Residues were reconstituted in mobile phase (5:95 v:v ACN:0.1% aqueous formic acid) prior to analysis by HPLC/UV/MS^n.
as §3, §4, §5

[4] = Metabolites of Compound 2 in rat bile following a 1.0 mg/kg IV bolus dose; format: in vivo; details: 1.0 mg/kg IV bolus dose of Compound 2, bile duct cannulated rats, pooled 0-24 hrs
Description: as §6
Bile samples (0-3, 3-7, and 7-24 hrs) from individual animals were pooled in proportion to the amount collect in each interval. Then 0.5 mL of each individual pool was combined to prepare a composite sample for analysis.
as §7, §3, §4, §5

human GLP-1R [5] = target: human GLP-1R (Homo sapiens, UniProt P43220, G168S); assay: CHO GLP-1R Clone H6 - Assay 1 (HTRF cAMP agonist assay); details: read-out: Assay 1 Emax (%)
Sequence of human GLP-1R (Homo sapiens, UniProt P43220, G168S) (P43220 24-463 G168S): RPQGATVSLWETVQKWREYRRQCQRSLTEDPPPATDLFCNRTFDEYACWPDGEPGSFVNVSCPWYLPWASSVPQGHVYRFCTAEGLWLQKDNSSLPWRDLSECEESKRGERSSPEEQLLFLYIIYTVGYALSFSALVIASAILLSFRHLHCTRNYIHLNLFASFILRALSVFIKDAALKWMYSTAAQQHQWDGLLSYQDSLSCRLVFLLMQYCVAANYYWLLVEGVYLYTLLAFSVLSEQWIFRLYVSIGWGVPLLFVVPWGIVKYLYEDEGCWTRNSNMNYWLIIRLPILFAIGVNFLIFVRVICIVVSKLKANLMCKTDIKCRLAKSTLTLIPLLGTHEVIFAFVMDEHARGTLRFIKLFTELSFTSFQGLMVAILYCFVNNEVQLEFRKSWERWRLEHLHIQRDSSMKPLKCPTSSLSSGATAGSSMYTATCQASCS
Description: GLP-1R-mediated agonist activity was determined with a cell-based functional assay utilizing an HTRF (Homogeneous Time-Resolved Fluorescence) cAMP detection kit (cAMP HI Range Assay Kit; CisBio cat #62AM6PEJ) that measures cAMP levels in the cell. The method is a competitive immunoassay between native cAMP produced by the cells and exogenous cAMP labeled with the dye d2. The tracer binding is visualized by a mAb anti-cAMP labeled with Cryptate. The specific signal (i.e. energy transfer) is inversely proportional to the concentration of cAMP in either standard or experimental sample.
The human GLP-1R coding sequence (NCBI Reference Sequence NP_002053.3, including naturally-occurring variant Gly168Ser) was subcloned into pcDNA3 (Invitrogen) and a cell line stably expressing the receptor was isolated (designated Clone H6).
Cells were removed from cryopreservation, re-suspended in 40 mL of Dulbecco's Phosphate Buffered Saline (DPBS—Lonza Cat #17-512Q) and centrifuged at 800×g for 5 minutes at 22° C. The cell pellet was then re-suspended in 10 mL of growth medium [DMEM/F12 1:1 Mixture with HEPES, L-Gln, 500 mL (DMEM/F12 Lonza Cat #12-719F), 10% heat inactivated fetal bovine serum (Gibco Cat #16140-071), 5 mL of 100× Pen-Strep (Gibco Cat #15140-122), 5 mL of 100× L-Glutamine (Gibco Cat #25030-081) and 500 μg/mL Geneticin (G418) (Invitrogen #10131035)]. A 1 mL sample of the cell suspension in growth media was counted on a Becton Dickinson ViCell to determine cell viability and cell count per mL. The remaining cell suspension was then adjusted with growth media to deliver 2000 viable cells per well using a Matrix Combi Multidrop reagent dispenser, and the cells were dispensed into a white 384 well tissue culture treated assay plate (Corning 3570). The assay plate was then incubated for 48 hours at 37° C. in a humidified environment in 5% carbon dioxide.
Varying concentrations of each compound to be tested (in DMSO) were diluted in assay buffer (HBSS with Calcium/Magnesium (Lonza/BioWhittaker cat #10-527F)/0.1% BSA (Sigma Aldrich cat #A7409-1L)/20 mM HEPES (Lonza/BioWhittaker cat #17-737E) containing 100 μM 3-isobutyl-1-methylxanthin (IBMX; Sigma cat #15879). The final DMSO concentration is 1%.
After 48 hours, the growth media was removed from the assay plate wells, and the cells were treated with 20 μL of the serially diluted compound in assay buffer for 30 minutes at 37° C. in a humidified environment in 5% carbon dioxide. Following the 30 minute incubation, 10 μL of labeled d2 cAMP and 10 μL of anti-cAMP antibody (both diluted 1:20 in cell lysis buffer; as described in the manufacturer's assay protocol) were added to each well of the assay plate. The plates were then incubated at room temperature and after 60 minutes, changes in the HTRF signal were read with an Envision 2104 multi-label plate reader using excitation of 330 nm and emissions of 615 and 665 nm. Raw data were converted to nM cAMP by interpolation from a cAMP standard curve (as described in the manufacturer's assay protocol) and the percent effect was determined relative to a saturating concentration of the full agonist GLP-17-36 (1 μM) included on each plate. EC50 determinations were made from agonist dose-response curves analyzed with a curve fitting program using a 4-parameter logistic dose response equation.

T1 sequence (P43220 24-463 L260F): as the sequence (P43220 24-463 G168S) above, with S145G, L237F counted along it

Row | SMILES | metabolite of Compound 2 observed in mouse hepatocyte incubations (mouse hepatocytes) | Relative abundance of metabolite of Compound 2, Mouse (mouse hepatocytes) | metabolite of Compound 2 observed in rat hepatocyte incubations (rat hepatocytes) | Relative abundance of metabolite of Compound 2, Rat (rat hepatocytes) | metabolite of Compound 2 observed in human hepatocyte incubations (human hepatocytes) | Relative abundance of metabolite of Compound 2, Human (human hepatocytes) | metabolite of Compound 2 observed in rabbit hepatocyte incubations (rabbit hepatocytes) | Relative abundance of metabolite of Compound 2, Rabbit (rabbit hepatocytes) | Relative abundance of metabolite of Compound 2, Hepatopack [1] | metabolite of Compound 2 observed in monkey hepatocyte incubations (monkey hepatocytes) | Relative abundance of metabolite of Compound 2, Monkey (monkey hepatocytes) | Emax (human GLP-1R [2]) [%] | detected in rat plasma [3] | detected in rat bile [4] | Emax (human GLP-1R [5]) [%]
1 | C[C@]1(c2ccc(Cl)cn2)Oc2cccc(C3CCN(Cc4nc5ccc(C(=O)O)cc5n4CC(O)CCO)CC3)c2O1 (stereo in doubt) [Metabolite 593] | observed in all hepatocyte incubations | + | observed in all hepatocyte incubations | trace | observed in all hepatocyte incubations | ** | observed in all hepatocyte incubations | +++ | ** | observed in all hepatocyte incubations | + | – | – | – | –
2 | C[C@]1(c2ccc(Cl)cn2)Oc2cccc(C3CCN(Cc4nc5ccc(C(=O)O)cc5n4C[C@@H]4CCO4)CC3)c2O1 [Compound 2, 2-((4-((S)-2-(5-chloropyridin-2-yl)-2-methylbenzo[d][1,3]dioxol-4-yl)piperidin-1-yl)methyl)-1-(((S)-oxetan-2-yl)methyl)-1H-benzo[d]imidazole-6-carboxylic acid] | – | – | – | – | – | – | – | – | – | – | – | 96 | detected | detected | 99
3 | C[C@]1(c2ccc(Cl)cn2)Oc2cccc(-c3cc[n+](Cc4nc5ccc(C(=O)O)cc5n4C[C@@H]4CCO4)cc3)c2O1 [Metabolite 569] | observed in all hepatocyte incubations | + | observed in all hepatocyte incubations | trace | observed in all hepatocyte incubations | + | observed in all hepatocyte incubations | + | + | observed in all hepatocyte incubations | trace | – | – | – | –

Source: patent US12065434B2, “Metabolites of GLP1R agonists” (Pfizer Inc., priority 2020, dated 2024)
